From article PMC11036874, “In vitro characterization of [^125I]HY-3-24, a selective ligand for the dopamine D3 receptor” (Frontiers in Neuroscience, 2024)
Entries after “also recorded” stand apart in the source; their conditions may differ.

Legend:
[1] = target: T1, sigma-2 (Rattus norvegicus, UniProt Q5U3Y7); test: Sigma-2 binding assay with [125I]RHM4; conditions: [125I]RHM4, rat liver homogenates
T1 construct: rat liver homogenates (15 μg/100 μL); from tissue; host or cells: rat liver homogenates
T1 sequence (Q5U3Y7 whole entry): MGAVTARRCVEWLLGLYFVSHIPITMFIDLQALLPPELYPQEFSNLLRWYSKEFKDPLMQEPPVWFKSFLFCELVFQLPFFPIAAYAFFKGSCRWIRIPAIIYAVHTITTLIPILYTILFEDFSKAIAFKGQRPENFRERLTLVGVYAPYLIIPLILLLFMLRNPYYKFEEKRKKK
Description: For sigma-2 binding assay, HY-3-24 prepared in 10^−5 to 10^−11 M concentration range was mixed with [^125I]RHM4 (50 μL,~200,000 cpm) and rat liver homogenates (15 μg/100 μL). The mixture was vortexed briefly and incubated at room temperature (RT) for 90 min. The [^125I]RHM4-bound membrane was collected through Whatman CF/C filters by 24-well harvester (Brandel Inc., Maryland, United States), and washed with 4 mL of cold buffer. The filters were counted on a gamma counter (PerkinElmer, Massachusetts, United States). Cold RHM4 was used for defining non-specific binding. The Ki value was obtained by PRISM 9.

[2] = target: T2, Muscarinic M2 (Homo sapiens, UniProt P08172); test: PDSP binding screen; conditions: HCl salt
T2 construct: Psychoactive Drug Screening Program (PDSP)
Excerpt: (§1) The binding of HY-3-24 to various GPCRs was investigated through comprehensive screening by Psychoactive Drug Screening Program (PDSP) (Supplementary Table S1) ([Besnard et al., 2012]). These GPCRs included major neurotransmitter receptors family (e.g., dopamine, serotonin, histamine, opioid, muscarinic, adrenergic, sigma receptors, ɤ-amino-butyric acid type A, and benzodiazepine receptors) and transporters (e.g., dopamine, norepinephrine, and serotonin transporter).

[3] = target: T3, Muscarinic M3 (Homo sapiens, UniProt P20309); test: PDSP binding screen; conditions: HCl salt
T3 construct: Psychoactive Drug Screening Program (PDSP)
T3 sequence (P20309 whole entry): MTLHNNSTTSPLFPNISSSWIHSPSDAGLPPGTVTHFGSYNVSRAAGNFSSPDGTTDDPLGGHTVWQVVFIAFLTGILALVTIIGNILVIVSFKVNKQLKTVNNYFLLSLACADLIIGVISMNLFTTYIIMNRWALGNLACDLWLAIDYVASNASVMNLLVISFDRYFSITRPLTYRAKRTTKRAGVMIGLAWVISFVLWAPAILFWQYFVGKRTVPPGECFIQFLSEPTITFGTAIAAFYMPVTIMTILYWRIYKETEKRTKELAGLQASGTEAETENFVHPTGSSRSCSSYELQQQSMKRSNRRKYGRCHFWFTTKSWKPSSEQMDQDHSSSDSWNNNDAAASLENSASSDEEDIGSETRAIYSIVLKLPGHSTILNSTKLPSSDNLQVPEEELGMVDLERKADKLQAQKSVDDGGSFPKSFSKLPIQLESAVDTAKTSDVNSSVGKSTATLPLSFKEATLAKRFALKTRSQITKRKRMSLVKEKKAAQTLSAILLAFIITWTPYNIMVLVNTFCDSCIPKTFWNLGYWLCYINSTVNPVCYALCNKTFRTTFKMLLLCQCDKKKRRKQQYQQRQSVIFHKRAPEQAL
Excerpt: as §1

[4] = target: T4, Muscarinic M4 (Homo sapiens, UniProt P08173); test: PDSP binding screen; conditions: HCl salt
T4 construct: Psychoactive Drug Screening Program (PDSP)
Excerpt: as §1

[5] = target: T5, Muscarinic M5 (Homo sapiens, UniProt P08912); test: PDSP binding screen; conditions: HCl salt
T5 construct: Psychoactive Drug Screening Program (PDSP)
T5 sequence (P08912 whole entry): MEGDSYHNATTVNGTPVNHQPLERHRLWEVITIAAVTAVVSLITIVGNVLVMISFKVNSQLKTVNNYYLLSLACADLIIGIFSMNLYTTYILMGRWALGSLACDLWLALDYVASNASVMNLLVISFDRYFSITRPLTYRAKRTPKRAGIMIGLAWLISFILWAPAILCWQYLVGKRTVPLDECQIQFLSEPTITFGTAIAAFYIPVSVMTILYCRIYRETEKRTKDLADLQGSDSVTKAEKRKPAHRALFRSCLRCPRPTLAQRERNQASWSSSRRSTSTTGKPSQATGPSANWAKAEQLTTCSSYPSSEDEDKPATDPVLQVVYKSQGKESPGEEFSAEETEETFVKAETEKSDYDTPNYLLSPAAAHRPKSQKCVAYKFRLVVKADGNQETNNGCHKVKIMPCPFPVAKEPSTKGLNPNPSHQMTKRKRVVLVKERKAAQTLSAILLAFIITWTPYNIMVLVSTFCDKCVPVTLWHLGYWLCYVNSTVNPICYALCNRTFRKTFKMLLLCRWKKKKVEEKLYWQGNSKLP
Excerpt: as §1

[6] = target: T6, adrenergic alpha2A (Homo sapiens, UniProt P08913); test: PDSP binding screen; conditions: HCl salt
T6 construct: Psychoactive Drug Screening Program (PDSP)
T6 sequence (P08913 whole entry): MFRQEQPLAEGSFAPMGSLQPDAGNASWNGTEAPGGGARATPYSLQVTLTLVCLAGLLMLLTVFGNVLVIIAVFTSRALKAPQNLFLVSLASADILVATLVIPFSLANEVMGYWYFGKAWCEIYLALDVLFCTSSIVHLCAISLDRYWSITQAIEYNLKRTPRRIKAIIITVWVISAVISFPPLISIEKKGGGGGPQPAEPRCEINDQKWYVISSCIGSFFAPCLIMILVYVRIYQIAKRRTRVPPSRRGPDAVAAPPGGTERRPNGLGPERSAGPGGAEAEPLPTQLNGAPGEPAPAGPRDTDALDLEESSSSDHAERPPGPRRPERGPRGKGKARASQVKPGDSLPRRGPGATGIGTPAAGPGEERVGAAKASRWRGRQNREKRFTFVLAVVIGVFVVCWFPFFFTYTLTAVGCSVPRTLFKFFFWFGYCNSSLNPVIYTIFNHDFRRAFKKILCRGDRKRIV
Excerpt: as §1

[7] = target: T7, adrenergic alpha2B (Homo sapiens, UniProt P18089); test: PDSP binding screen; conditions: HCl salt
T7 construct: Psychoactive Drug Screening Program (PDSP)
Excerpt: as §1

[8] = target: T8, adrenergic alpha2C (Homo sapiens, UniProt P18825); test: PDSP binding screen; conditions: HCl salt
T8 construct: Psychoactive Drug Screening Program (PDSP)
Excerpt: as §1

[9] = target: T9, adrenergic beta2 (Homo sapiens, UniProt P07550); test: PDSP binding screen; conditions: HCl salt
T9 construct: Psychoactive Drug Screening Program (PDSP)
T9 sequence (P07550 whole entry): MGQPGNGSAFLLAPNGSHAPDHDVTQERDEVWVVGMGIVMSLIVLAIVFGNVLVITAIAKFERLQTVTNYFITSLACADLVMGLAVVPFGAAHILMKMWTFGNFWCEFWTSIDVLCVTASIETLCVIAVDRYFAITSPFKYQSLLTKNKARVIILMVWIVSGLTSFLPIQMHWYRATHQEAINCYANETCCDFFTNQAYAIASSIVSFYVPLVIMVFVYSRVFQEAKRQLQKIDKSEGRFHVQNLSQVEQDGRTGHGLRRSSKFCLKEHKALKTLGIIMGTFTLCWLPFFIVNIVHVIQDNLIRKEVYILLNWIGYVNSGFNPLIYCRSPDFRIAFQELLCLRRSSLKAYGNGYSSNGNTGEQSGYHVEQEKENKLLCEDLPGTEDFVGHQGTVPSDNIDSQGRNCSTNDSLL
Excerpt: as §1

[10] = target: benzodiazepine rat brain site; test: PDSP binding screen; conditions: HCl salt
Excerpt: as §1

[11] = target: benzodiazepine receptor; test: PDSP binding screen; conditions: HCl salt
Excerpt: as §1

[12] = target: dopamine D1 (Homo sapiens, UniProt P21728); test: PDSP binding screen; conditions: HCl salt
Excerpt: as §1

[13] = target: dopamine D2 (Homo sapiens, UniProt P14416); test: PDSP binding screen; conditions: HCl salt, [3H]N-methylspiperone
Excerpt: as §1

[14] = target: dopamine D3 (Homo sapiens, UniProt P35462); test: PDSP binding screen; conditions: HCl salt, [3H]N-methylspiperone
Sequence of dopamine D3 (P35462 whole entry): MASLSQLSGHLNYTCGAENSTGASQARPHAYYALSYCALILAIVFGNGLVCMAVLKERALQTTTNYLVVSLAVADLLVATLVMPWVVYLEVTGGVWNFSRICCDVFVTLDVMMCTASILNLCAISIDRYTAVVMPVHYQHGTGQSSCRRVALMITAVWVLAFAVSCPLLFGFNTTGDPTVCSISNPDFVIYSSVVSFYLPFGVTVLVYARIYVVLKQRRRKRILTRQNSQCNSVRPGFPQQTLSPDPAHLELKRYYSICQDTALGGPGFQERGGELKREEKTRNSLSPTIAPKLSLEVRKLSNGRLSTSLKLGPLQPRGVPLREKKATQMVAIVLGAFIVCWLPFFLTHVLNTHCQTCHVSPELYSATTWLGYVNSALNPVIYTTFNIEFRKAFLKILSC
Excerpt: as §1

[15] = target: dopamine D4 (Homo sapiens, UniProt P21917); test: PDSP binding screen; conditions: HCl salt
Excerpt: as §1

[16] = target: T10, dopamine active transporter (Homo sapiens, UniProt Q01959); test: PDSP binding screen; conditions: HCl salt
T10 construct: Psychoactive Drug Screening Program (PDSP)
Excerpt: as §1

[17] = target: T11, histamine H1 (Homo sapiens, UniProt P35367); test: PDSP binding screen; conditions: HCl salt
T11 construct: Psychoactive Drug Screening Program (PDSP)
T11 sequence (P35367 whole entry): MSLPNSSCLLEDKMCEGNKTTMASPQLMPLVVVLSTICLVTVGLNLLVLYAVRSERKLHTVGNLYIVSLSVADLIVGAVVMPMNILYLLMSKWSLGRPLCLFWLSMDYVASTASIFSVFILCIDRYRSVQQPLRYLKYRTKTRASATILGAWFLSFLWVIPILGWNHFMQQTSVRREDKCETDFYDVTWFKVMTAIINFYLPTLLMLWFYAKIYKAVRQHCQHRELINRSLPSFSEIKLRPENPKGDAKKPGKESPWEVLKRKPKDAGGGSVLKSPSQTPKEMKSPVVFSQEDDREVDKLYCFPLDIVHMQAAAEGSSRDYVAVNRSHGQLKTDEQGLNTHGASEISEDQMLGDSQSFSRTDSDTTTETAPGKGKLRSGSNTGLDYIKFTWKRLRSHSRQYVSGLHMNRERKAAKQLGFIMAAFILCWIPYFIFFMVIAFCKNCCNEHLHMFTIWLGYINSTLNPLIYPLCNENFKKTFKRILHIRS
Excerpt: as §1

[18] = target: T12, norepinephrine transporter (Homo sapiens, UniProt P23975); test: PDSP binding screen; conditions: HCl salt
T12 construct: Psychoactive Drug Screening Program (PDSP)
Excerpt: as §1

[19] = target: T13, opioid KOR (Homo sapiens, UniProt P41145); test: PDSP binding screen; conditions: HCl salt
T13 construct: Psychoactive Drug Screening Program (PDSP)
Excerpt: as §1

[20] = target: serotonin 5-HT1D (Homo sapiens, UniProt P28221); test: PDSP binding screen; conditions: HCl salt
Sequence of serotonin 5-HT1D (P28221 whole entry): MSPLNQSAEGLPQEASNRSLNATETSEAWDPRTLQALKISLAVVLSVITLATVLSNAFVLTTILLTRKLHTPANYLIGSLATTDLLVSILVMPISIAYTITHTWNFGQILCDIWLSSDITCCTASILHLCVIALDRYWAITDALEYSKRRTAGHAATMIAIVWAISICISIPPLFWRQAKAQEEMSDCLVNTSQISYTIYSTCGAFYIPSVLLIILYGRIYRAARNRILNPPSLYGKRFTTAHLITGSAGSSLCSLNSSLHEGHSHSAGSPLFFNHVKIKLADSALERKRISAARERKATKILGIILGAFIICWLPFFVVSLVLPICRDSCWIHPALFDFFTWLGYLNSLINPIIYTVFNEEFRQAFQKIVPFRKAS
Excerpt: as §1

[21] = target: serotonin 5-HT2A (Homo sapiens, UniProt P28223); test: PDSP binding screen; conditions: HCl salt
Excerpt: as §1

[22] = target: serotonin 5-HT2B (Homo sapiens, UniProt P41595); test: PDSP binding screen; conditions: HCl salt
Excerpt: as §1

[23] = target: serotonin 5-HT2C (Homo sapiens, UniProt P28335); test: PDSP binding screen; conditions: HCl salt
Excerpt: as §1

[24] = target: serotonin 5-HT3 (Homo sapiens, UniProt P46098); test: PDSP binding screen; conditions: HCl salt
Sequence of serotonin 5-HT3 (P46098 24-478): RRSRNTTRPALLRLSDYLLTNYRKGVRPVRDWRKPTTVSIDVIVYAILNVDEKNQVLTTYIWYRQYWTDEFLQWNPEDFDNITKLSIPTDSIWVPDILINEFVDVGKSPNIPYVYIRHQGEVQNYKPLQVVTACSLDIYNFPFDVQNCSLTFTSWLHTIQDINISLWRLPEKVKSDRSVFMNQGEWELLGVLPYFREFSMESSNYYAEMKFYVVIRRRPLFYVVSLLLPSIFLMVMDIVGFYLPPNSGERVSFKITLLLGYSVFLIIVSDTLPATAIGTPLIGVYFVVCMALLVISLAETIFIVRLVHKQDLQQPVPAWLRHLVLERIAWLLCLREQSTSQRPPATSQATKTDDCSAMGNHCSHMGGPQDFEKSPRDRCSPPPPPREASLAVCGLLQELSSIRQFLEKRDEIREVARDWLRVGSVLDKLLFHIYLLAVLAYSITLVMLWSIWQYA
Excerpt: as §1

[25] = target: T14, serotonin 5-HT6 (Homo sapiens, UniProt P50406); test: PDSP binding screen; conditions: HCl salt
T14 construct: Psychoactive Drug Screening Program (PDSP)
T14 sequence (P50406 whole entry): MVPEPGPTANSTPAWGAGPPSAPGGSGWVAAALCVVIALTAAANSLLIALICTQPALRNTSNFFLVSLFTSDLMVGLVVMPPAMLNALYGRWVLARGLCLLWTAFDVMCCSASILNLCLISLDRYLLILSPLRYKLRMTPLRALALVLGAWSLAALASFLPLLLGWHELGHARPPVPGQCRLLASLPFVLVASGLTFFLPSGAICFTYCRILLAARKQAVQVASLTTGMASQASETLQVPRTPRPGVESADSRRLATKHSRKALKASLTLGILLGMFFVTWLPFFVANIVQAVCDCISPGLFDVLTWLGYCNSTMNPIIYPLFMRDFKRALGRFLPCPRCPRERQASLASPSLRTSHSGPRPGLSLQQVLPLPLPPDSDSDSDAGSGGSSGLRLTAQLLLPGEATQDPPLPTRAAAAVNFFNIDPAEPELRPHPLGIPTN
Excerpt: as §1

[26] = target: T15, serotonin transporter (Homo sapiens, UniProt P31645); test: PDSP binding screen; conditions: HCl salt
T15 construct: Psychoactive Drug Screening Program (PDSP)
Excerpt: as §1

[27] = target: T16, sigma1 (Homo sapiens, UniProt Q99720); test: PDSP binding screen; conditions: HCl salt
T16 construct: Psychoactive Drug Screening Program (PDSP)
T16 sequence (Q99720 whole entry): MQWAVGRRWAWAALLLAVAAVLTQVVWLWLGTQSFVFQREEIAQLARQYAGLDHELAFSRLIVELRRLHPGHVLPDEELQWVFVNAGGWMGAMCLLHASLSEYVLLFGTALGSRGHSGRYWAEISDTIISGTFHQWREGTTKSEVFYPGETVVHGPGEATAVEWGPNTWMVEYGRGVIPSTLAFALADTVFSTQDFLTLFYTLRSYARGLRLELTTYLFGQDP
Excerpt: as §1

[28] = target: T17, sigma2 (Homo sapiens, UniProt Q5BJF2); test: PDSP binding screen; conditions: HCl salt
T17 construct: Psychoactive Drug Screening Program (PDSP)
T17 sequence (Q5BJF2 whole entry): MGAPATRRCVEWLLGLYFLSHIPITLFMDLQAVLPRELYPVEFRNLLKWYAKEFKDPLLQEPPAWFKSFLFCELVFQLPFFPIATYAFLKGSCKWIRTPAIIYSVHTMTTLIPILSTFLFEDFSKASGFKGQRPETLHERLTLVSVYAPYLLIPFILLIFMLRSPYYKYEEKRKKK
Excerpt: as §1

[29] = target: ɤ-aminobutyric acid type A; test: PDSP binding screen; conditions: HCl salt
Excerpt: as §1

[30] = target: human D3R (Homo sapiens, UniProt P35462); test: β-arrestin recruitment assay for D3R; assay type: cell-based; design: expressed in transfected cells
Sequence of human D3R (P35462 whole entry): as the sequence (P35462 whole entry) above
Description: Chinese hamster ovary CHO-K1 cells (CHO-K1) which were over expressed human D3R were cultured in assaycomplete™ cell culture kit 107 (DiscoverX, Fremont, CA, United States). Cells were seeded at a density of 25,000 cells per well of 96-well plate, and incubated at 5% CO2, 37°C. After 46 h, HY-3-24 was (10^−5 to 10^−11) in phosphate-buffered saline (PBS) was added to the cells. The plates were incubated for 30 min at 5% CO2, 37°C for the agonist binding assay; for the antagonist assay, cells were treated with 30 nM (EC80) of dopamine and then the mixture was incubated for 90 min. PathHunter™ β-arrestin recruitment assay kit (DiscoverX, Fremont, CA, United States) was added to each well, and the plate was incubated for 80 min at RT under the dark condition. The chemiluminescent signal was measured on a PerkinElmer Enspire plate reader (PerkinElmer, Boston, MA, United States). Data were analyzed by Prism followed by non-linear regression.

With CCN(CCCNC(=O)c1ccc(-c2ccncc2)cc1)CCNC(=O)c1cc(I)cc(OC)c1OC [HY-3-24, N-(2-(Ethyl(3-(4-(pyridin-4-yl)benzamido)propyl)amino)ethyl)-5-iodo-2,3-dimethoxybenzamide] the “binding to sigma-2 receptors” value [1] was “did not bind”, the “binding to sigma-2 receptors” value ([1]; listed as HY-2-34) was “low affinity” and the Ki [2] was 832 nM. The Ki [3] was 1780 nM, the Ki [4] was 544 nM and the Ki [5] was 118 nM. The Ki [6] was 2150 nM, the Ki [7] was 1070 nM and the Ki [8] was 1900 nM. The Ki [9] was 5830 nM, the “Ki benzodiazepine rat brain site” value [10] was “N.A. (not active, less than 50% inhibition in primary binding assays at 10 µM)” and the Ki [11] was 5640 nM. The “Ki D1” value [12] was “N.A. (not active, less than 50% inhibition in primary binding assays at 10 µM)”, the Ki [13] was 43 nM and the Ki [14] was 1.2 nM. It also gave a Ki [15] of 1860 nM, a Ki [16] of 1130 nM and a Ki [17] of 244 nM. It also gave a Ki [18] of 5950 nM, a Ki [19] of 1550 nM and a Ki [20] of 1690 nM. The Ki [21] was 310 nM, the Ki [22] was 38 nM and the Ki [23] was 613 nM. For the same molecule, the Ki [24] was 904 nM, the Ki [25] was 1040 nM and the Ki [26] was 677 nM. It also gave a Ki [27] of 1950 nM, a Ki [28] of 2310 nM and a Ki [29] of 1120 nM. For the same molecule, the “EC50 β-arrestin recruitment D3R” value ([30]; agonist mode, 10^-5 to 10^-11 M, human D3R CHO-K1 cells) was “no β-arrestin recruitment; also recorded: N.A (not active)”, the IC50 ([30]; antagonist mode, vs 30 nM (EC80) dopamine, human D3R CHO-K1 cells) was 1.5 ± 0.58 nM and the “functional mode at D3R” value ([30]; β-arrestin recruitment assay) was “antagonist”.
